# According to patent US4740601A, “Imidazole derivatives having antimicrobial activities” (SS Pharmaceutical Co., Ltd., priority 1985, dated 1988):
# System: Sarcina lutea ATCC 9341
# Assay: antimicrobial activity, MIC
# Assay type: cell-based
# Conditions: Micrococcus luteus, ATCC9341, Sarcina lutea ATCC 9341; read-out: MIC
row,Structure (SMILES),MIC
1,CCCCOc1ccccc1C(=C(Br)Br)n1ccnc1 [Compound 93],25 µg/mL
2,CCOc1ccccc1C(=CSCc1ccccc1)n1ccnc1 [Compound 7],12.5 µg/mL

# System: Pyricularia oryzae IAM 5016
# Assay: microbe, parasite or virus in culture
# Assay type: cell-based
# Conditions: Pyricularia oryzae, IAM5016, Pyricularia oryzae IAM 5016
row,Structure (SMILES),MIC
1,CCCCOc1ccccc1C(=C(Br)Br)n1ccnc1 [Compound 93],0.39 µg/mL
2,CCOc1ccccc1C(=CSCc1ccccc1)n1ccnc1 [Compound 7],< 0.2 µg/mL

# System: Cladosporium fulvum IAM 5006
# Assay: antimicrobial activity, MIC
# Assay type: cell-based
# Conditions: Fulvia fulva, IAM5006, Cladosporium fulvum IAM 5006; read-out: MIC
row,Structure (SMILES),MIC
1,CCCCOc1ccccc1C(=C(Br)Br)n1ccnc1 [Compound 93],> 100 µg/mL
2,CCOc1ccccc1C(=CSCc1ccccc1)n1ccnc1 [Compound 7],100 µg/mL

# System: Staphylococcus aureus Smith
# Assay: antimicrobial activity, MIC
# Assay type: cell-based
# Conditions: Staphylococcus aureus, read-out: MIC
row,Structure (SMILES),MIC
1,CCCCOc1ccccc1C(=C(Br)Br)n1ccnc1 [Compound 93],25 µg/mL
2,CCOc1ccccc1C(=CSCc1ccccc1)n1ccnc1 [Compound 7],12.5 µg/mL

# System: Fusarium moniliforme IAM 5062
# Assay: antimicrobial activity, MIC
# Assay type: cell-based
# Conditions: Fusarium verticillioides, IAM5062, Fusarium moniliforme IAM 5062; read-out: MIC
row,Structure (SMILES),MIC
1,CCCCOc1ccccc1C(=C(Br)Br)n1ccnc1 [Compound 93],> 100 µg/mL
2,CCOc1ccccc1C(=CSCc1ccccc1)n1ccnc1 [Compound 7],6.25 µg/mL

# System: Penicillium chrysogenum ATCC 6010
# Assay: antimicrobial activity, MIC
# Assay type: cell-based
# Conditions: Penicillium chrysogenum, ATCC6010, Penicillium chrysogenum ATCC 6010; read-out: MIC
row,Structure (SMILES),MIC
1,CCCCOc1ccccc1C(=C(Br)Br)n1ccnc1 [Compound 93],> 100 µg/mL
2,CCOc1ccccc1C(=CSCc1ccccc1)n1ccnc1 [Compound 7],50 µg/mL

# System: Staphylococcus aureus FDA 209P
# Assay: antimicrobial activity, MIC
# Assay type: cell-based
# Conditions: Staphylococcus aureus, FDA209P, read-out: MIC
row,Structure (SMILES),MIC
1,CCCCOc1ccccc1C(=C(Br)Br)n1ccnc1 [Compound 93],25 µg/mL
2,CCOc1ccccc1C(=CSCc1ccccc1)n1ccnc1 [Compound 7],50 µg/mL

# System: Helminthosporium sesamum IAM 5012
# Assay: antimicrobial activity, MIC
# Assay type: cell-based
# Conditions: Helminthosporium, IAM5012, Helminthosporium sesamum IAM 5012; read-out: MIC
row,Structure (SMILES),MIC
1,CCCCOc1ccccc1C(=C(Br)Br)n1ccnc1 [Compound 93],50 µg/mL
2,CCOc1ccccc1C(=CSCc1ccccc1)n1ccnc1 [Compound 7],0.39 µg/mL

# System: Candida albicans NHL 4019
# Assay: antimicrobial activity, MIC
# Assay type: cell-based
# Conditions: Candida albicans, NHL4019, Candida albicans NHL 4019; read-out: MIC
row,Structure (SMILES),MIC
1,CCCCOc1ccccc1C(=C(Br)Br)n1ccnc1 [Compound 93],100 µg/mL
2,CCOc1ccccc1C(=CSCc1ccccc1)n1ccnc1 [Compound 7],100 µg/mL

# System: Trichophyton tonsurans IFO 5928
# Assay: antimicrobial activity, MIC
# Assay type: cell-based
# Conditions: Trichophyton tonsurans, IFO5928, Trichophyton tonsurans IFO 5928; read-out: MIC
row,Structure (SMILES),MIC
1,CCCCOc1ccccc1C(=C(Br)Br)n1ccnc1 [Compound 93],1.56 µg/mL
2,CCOc1ccccc1C(=CSCc1ccccc1)n1ccnc1 [Compound 7],< 0.2 µg/mL

# System: Staphylococcus aureus Terajima
# Assay: antimicrobial activity, MIC
# Assay type: cell-based
# Conditions: Staphylococcus aureus, read-out: MIC
row,Structure (SMILES),MIC
1,CCCCOc1ccccc1C(=C(Br)Br)n1ccnc1 [Compound 93],25 µg/mL
2,CCOc1ccccc1C(=CSCc1ccccc1)n1ccnc1 [Compound 7],25 µg/mL

# System: Microsporum gypseum IFO 8231
# Assay: antimicrobial activity, MIC
# Assay type: cell-based
# Conditions: Nannizzia gypsea, IFO8231, Microsporum gypseum IFO 8231; read-out: MIC
row,Structure (SMILES),MIC
1,CCCCOc1ccccc1C(=C(Br)Br)n1ccnc1 [Compound 93],6.25 µg/mL
2,CCOc1ccccc1C(=CSCc1ccccc1)n1ccnc1 [Compound 7],1.56 µg/mL

# System: Bacillus subtilis ATCC 6633
# Assay: antimicrobial activity, MIC
# Assay type: cell-based
# Conditions: Bacillus subtilis, ATCC6633, Bacillus subtilis ATCC 6633; read-out: MIC
row,Structure (SMILES),MIC
1,CCCCOc1ccccc1C(=C(Br)Br)n1ccnc1 [Compound 93],12.5 µg/mL
2,CCOc1ccccc1C(=CSCc1ccccc1)n1ccnc1 [Compound 7],25 µg/mL

# System: Saccharomyces ruxii 6507
# Assay: antimicrobial activity, MIC
# Assay type: cell-based
# Conditions: Saccharomyces ruxii 6507; read-out: MIC
row,Structure (SMILES),MIC
1,CCCCOc1ccccc1C(=C(Br)Br)n1ccnc1 [Compound 93],< 0.2 µg/mL
2,CCOc1ccccc1C(=CSCc1ccccc1)n1ccnc1 [Compound 7],0.78 µg/mL

# System: Micrococcus lysodeixticus IFO 3333
# Assay: antimicrobial activity, MIC
# Assay type: cell-based
# Conditions: Micrococcus, IFO3333, Micrococcus lysodeixticus IFO 3333; read-out: MIC
row,Structure (SMILES),MIC
1,CCCCOc1ccccc1C(=C(Br)Br)n1ccnc1 [Compound 93],6.25 µg/mL
2,CCOc1ccccc1C(=CSCc1ccccc1)n1ccnc1 [Compound 7],6.25 µg/mL

# System: Saccharomyces cerevisiae ATCC 9763
# Assay: antimicrobial activity, MIC
# Assay type: cell-based
# Conditions: Saccharomyces cerevisiae, ATCC9763, Saccharomyces cerevisiae ATCC 9763; read-out: MIC
row,Structure (SMILES),MIC
1,CCCCOc1ccccc1C(=C(Br)Br)n1ccnc1 [Compound 93],< 0.2 µg/mL
2,CCOc1ccccc1C(=CSCc1ccccc1)n1ccnc1 [Compound 7],< 0.2 µg/mL

# System: Debaryomyces kloeckeri IFO 0015
# Assay: antimicrobial activity, MIC
# Assay type: cell-based
# Conditions: IFO0015, read-out: MIC
row,Structure (SMILES),MIC
1,CCCCOc1ccccc1C(=C(Br)Br)n1ccnc1 [Compound 93],6.25 µg/mL
2,CCOc1ccccc1C(=CSCc1ccccc1)n1ccnc1 [Compound 7],25 µg/mL

# System: Epidermophyton floccosum IFO 9045
# Assay: antimicrobial activity, MIC
# Assay type: cell-based
# Conditions: Epidermophyton floccosum, IFO9045, Epidermophyton floccosum IFO 9045; read-out: MIC
row,Structure (SMILES),MIC
1,CCCCOc1ccccc1C(=C(Br)Br)n1ccnc1 [Compound 93],25 µg/mL
2,CCOc1ccccc1C(=CSCc1ccccc1)n1ccnc1 [Compound 7],6.25 µg/mL

# System: Microsporum cookei IFO 8303
# Assay: antimicrobial activity, MIC
# Assay type: cell-based
# Conditions: Paraphyton cookei, IFO8303, Microsporum cookei IFO 8303; read-out: MIC
row,Structure (SMILES),MIC
1,CCCCOc1ccccc1C(=C(Br)Br)n1ccnc1 [Compound 93],12.5 µg/mL
2,CCOc1ccccc1C(=CSCc1ccccc1)n1ccnc1 [Compound 7],12.5 µg/mL

# System: Candida albicans Yu-1200
# Assay: antimicrobial activity, MIC
# Assay type: cell-based
# Conditions: YU1200, read-out: MIC
row,Structure (SMILES),MIC
1,CCCCOc1ccccc1C(=C(Br)Br)n1ccnc1 [Compound 93],> 100 µg/mL
2,CCOc1ccccc1C(=CSCc1ccccc1)n1ccnc1 [Compound 7],> 100 µg/mL

# System: Aspergillus niger ATCC 9642
# Assay: antimicrobial activity, MIC
# Assay type: cell-based
# Conditions: Aspergillus niger, ATCC9642, Aspergillus niger ATCC 9642; read-out: MIC
row,Structure (SMILES),MIC
1,CCCCOc1ccccc1C(=C(Br)Br)n1ccnc1 [Compound 93],> 100 µg/mL
2,CCOc1ccccc1C(=CSCc1ccccc1)n1ccnc1 [Compound 7],12.5 µg/mL

# System: Staphylococcus epidermidis ATCC 12228
# Assay: antimicrobial activity, MIC
# Assay type: cell-based
# Conditions: Staphylococcus epidermidis, ATCC12228, Staphylococcus epidermidis ATCC 12228; read-out: MIC
row,Structure (SMILES),MIC
1,CCCCOc1ccccc1C(=C(Br)Br)n1ccnc1 [Compound 93],25 µg/mL
2,CCOc1ccccc1C(=CSCc1ccccc1)n1ccnc1 [Compound 7],25 µg/mL

# System: Trichophyton mentagrophytes QM 248
# Assay: antimicrobial activity, MIC
# Assay type: cell-based
# Conditions: Trichophyton mentagrophytes, QM248, Trichophyton mentagrophytes QM 248; read-out: MIC
row,Structure (SMILES),MIC
1,CCCCOc1ccccc1C(=C(Br)Br)n1ccnc1 [Compound 93],1.56 µg/mL
2,CCOc1ccccc1C(=CSCc1ccccc1)n1ccnc1 [Compound 7],3.12 µg/mL

# System: Streptococcus faecalis IFO 12964
# Assay: antimicrobial activity, MIC
# Assay type: cell-based
# Conditions: Enterococcus faecalis, IFO12964, Streptococcus faecalis IFO 12964; read-out: MIC
row,Structure (SMILES),MIC
1,CCCCOc1ccccc1C(=C(Br)Br)n1ccnc1 [Compound 93],50 µg/mL
2,CCOc1ccccc1C(=CSCc1ccccc1)n1ccnc1 [Compound 7],50 µg/mL

# System: Microsporum audounii IFO 6074
# Assay: antimicrobial activity, MIC
# Assay type: cell-based
# Conditions: Microsporum, IFO6074, Microsporum audounii IFO 6074; read-out: MIC
row,Structure (SMILES),MIC
1,CCCCOc1ccccc1C(=C(Br)Br)n1ccnc1 [Compound 93],< 0.2 µg/mL
2,CCOc1ccccc1C(=CSCc1ccccc1)n1ccnc1 [Compound 7],< 0.2 µg/mL

# System: Aspergillus oryzae IMF 4014
# Assay: antimicrobial activity, MIC
# Assay type: cell-based
# Conditions: Aspergillus oryzae, IMF4014, Aspergillus oryzae IMF 4014; read-out: MIC
row,Structure (SMILES),MIC
1,CCCCOc1ccccc1C(=C(Br)Br)n1ccnc1 [Compound 93],> 100 µg/mL
2,CCOc1ccccc1C(=CSCc1ccccc1)n1ccnc1 [Compound 7],6.25 µg/mL

# System: Gibberella fujikuroi IAM 8046
# Assay: antimicrobial activity, MIC
# Assay type: cell-based
# Conditions: Fusarium fujikuroi, IAM8046, Gibberella fujikuroi IAM 8046; read-out: MIC
row,Structure (SMILES),MIC
1,CCCCOc1ccccc1C(=C(Br)Br)n1ccnc1 [Compound 93],> 100 µg/mL
2,CCOc1ccccc1C(=CSCc1ccccc1)n1ccnc1 [Compound 7],6.25 µg/mL

# System: Trichophyton rubrum NHL J
# Assay: antimicrobial activity, MIC
# Assay type: cell-based
# Conditions: Trichophyton rubrum, Trichophyton rubrum NHL J; read-out: MIC
row,Structure (SMILES),MIC
1,CCCCOc1ccccc1C(=C(Br)Br)n1ccnc1 [Compound 93],0.39 µg/mL
2,CCOc1ccccc1C(=CSCc1ccccc1)n1ccnc1 [Compound 7],< 0.2 µg/mL

# System: Trichophyton mentagrophytes IFO 5812
# Assay: antimicrobial activity, MIC
# Assay type: cell-based
# Conditions: Trichophyton mentagrophytes, IFO5812, Trichophyton mentagrophytes IFO 5812; read-out: MIC
row,Structure (SMILES),MIC
1,CCCCOc1ccccc1C(=C(Br)Br)n1ccnc1 [Compound 93],< 0.2 µg/mL
2,CCOc1ccccc1C(=CSCc1ccccc1)n1ccnc1 [Compound 7],0.78 µg/mL
